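Exposure lasted 48 hours, with cells grown in 96-well plates and compounds tested at five concentrations. Here, GI50 denotes the concentration required for 50% inhibition of growth. TGI is the concentration that stops growth completely.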

Our source for the TGI and GI50 values is PubChem BioAssay (NCI).

Among the test systems are NCI-H226 lung; HCT-15 colon; SNB-75 CNS; UACC-62 melanoma; NCI-H522 lung; 786-0 renal; SF-295 CNS; MDA-MB-435; HS 578T breast; MDA-MB-231 breast; NCI/ADR-RES ovarian.
What all share (assay): growth of human tumour cells (NCI), 48 h

Regarding `O=C1c2ccccc2C2C1N2C(=O)C(F)(F)F` (stereo not given), the TGI in the assay with NCI-H226 lung, in the assay on HCT-15 colon, in the assay on SNB-75 CNS, in the assay with UACC-62 melanoma, in the assay on NCI-H522 lung and in the assay with 786-0 renal was over 100 µM in each case. This compound showed a TGI in the assay with SF-295 CNS of over 100 µM.
With `CCCNC1=C2CC(C)CC(OC)[C@@H](O)[C@H](C)/C=C(\C)C(OC(N)=O)C(OC)/C=C\C=C(/C)C(=O)NC(=CC1=O)C2=O` (stereo not given in full), the GI50 was 0.244 µM in the assay on NCI-H226 lung; 0.0903 µM in the assay on MDA-MB-435; 0.46 µM in the assay on HCT-15 colon; 0.625 µM in the assay with HS 578T breast; 3.36 µM in the assay with MDA-MB-231 breast; 0.253 µM in the assay on UACC-62 melanoma. Moreover, the GI50 in the assay with NCI-H522 lung was 0.361 µM. Moreover, the TGI with NCI-H226 lung is 5.21 µM; with MDA-MB-435, 28.8 µM; in the assay on HCT-15 colon, 28.1 µM; with HS 578T breast, 36.8 µM; with MDA-MB-231 breast, 7.47 µM; in the assay on UACC-62 melanoma, 41.9 µM. Further, the TGI with NCI-H522 lung was 28.6 µM; with 786-0 renal, over 100 µM; with SF-295 CNS it was 19.9 µM.
As to `COc1nc(N)c(C(=O)CCl)c(=O)n1C`, the TGI in the assay on NCI-H226 lung was found to be 20.5 µM; with SNB-75 CNS it was 30.3 µM; with SF-295 CNS it was 29.4 µM.
Turning to `CNC(=O)C(C)C1CCC2(C)C=CC(=O)C(C)=C2C1O` (stereo not given), the TGI with NCI/ADR-RES ovarian was over 71.7 µM; in the assay with NCI-H226 lung it was over 100 µM; in the assay on HCT-15 colon it was over 100 µM; in the assay with SNB-75 CNS, over 100 µM; in the assay on UACC-62 melanoma, over 100 µM; in the assay with NCI-H522 lung it was over 100 µM. Further, the TGI in the assay with SF-295 CNS is over 70.8 µM.
As for `COc1ccc(CNc2nc(NCc3ccc(OC)c(OC)c3)nc(NC3CCCCC3)n2)cc1`, the TGI in the assay with NCI/ADR-RES ovarian was 17.5 µM; in the assay with NCI-H226 lung, over 100 µM; in the assay on MDA-MB-435 it was over 100 µM; in the assay with HCT-15 colon, 5.64 µM; in the assay on SNB-75 CNS, over 100 µM; in the assay with MDA-MB-231 breast it was over 100 µM. In addition, the TGI in the assay on UACC-62 melanoma was over 100 µM; in the assay on NCI-H522 lung, 5.74 µM; in the assay with 786-0 renal it was over 100 µM; with SF-295 CNS, over 100 µM.
Take `Cc1cccc2c(=O)cc(-c3ccccc3)[nH]c12`: the TGI in the assay on NCI-H226 lung was over 100 µM; in the assay with HCT-15 colon it was over 100 µM; with SNB-75 CNS, 9.26 µM; in the assay on UACC-62 melanoma, over 100 µM; with 786-0 renal, over 100 µM; with SF-295 CNS, 18.7 µM.
For the compound `CCN(CC)CCC(=O)Nc1ccc2c(c1)C(=O)c1ccc(NC(=O)CCN(CC)CC)cc1C2=O`, the TGI turned out to be 7.8 µM in the assay with NCI-H226 lung; 14.8 µM in the assay on HCT-15 colon; 31.9 µM with SNB-75 CNS; 22.3 µM with UACC-62 melanoma; 23.5 µM in the assay with NCI-H522 lung; 8.42 µM with 786-0 renal. In the assay with SF-295 CNS, this compound yielded a TGI of 24 µM.
With `C[C@]12CC[C@H](O)CC1=CC[C@@H]1C2CC[C@]2(C)C(=O)N(N)C(=O)CC12` (stereo not given in full), the TGI in the assay with NCI-H226 lung, with HCT-15 colon, with SNB-75 CNS, in the assay on UACC-62 melanoma, in the assay with NCI-H522 lung and with 786-0 renal was over 100 µM in each case. The compound further showed a TGI in the assay with SF-295 CNS of over 100 µM.
On to `[N-]=[N+]=Nc1cc(=O)oc2ccccc12`, for which the TGI in the assay with NCI-H226 lung, with HCT-15 colon, with SNB-75 CNS, in the assay with UACC-62 melanoma, in the assay on NCI-H522 lung and with 786-0 renal was over 100 µM in each case. The compound also had a TGI in the assay with SF-295 CNS of over 100 µM.
For the compound `CC(N)Cc1ccc(C(=O)Cl)cc1` (stereo not given), the TGI with HCT-15 colon, in the assay with SNB-75 CNS, in the assay with UACC-62 melanoma, with NCI-H522 lung, in the assay with 786-0 renal and in the assay on SF-295 CNS was over 100 µM each time.
Regarding `O=C1C(=Cc2ccc(O)cc2)N=C(c2ccccc2)N1n1c(-c2ccccc2)nc2ccccc2c1=O`, the TGI in the assay on NCI-H226 lung, in the assay on MDA-MB-435, in the assay on HCT-15 colon, in the assay on HS 578T breast, in the assay on SNB-75 CNS and in the assay with MDA-MB-231 breast was over 100 µM each time. The TGI in the assay on UACC-62 melanoma, in the assay on NCI-H522 lung, in the assay with 786-0 renal and with SF-295 CNS was over 100 µM in each case.
For the compound `CC[C@@]1(C[C@H]2C[C@@]3(C(=O)OC)c4[nH]c5ccccc5c4CCN3C2=O)COC2(CCCCC2)O1`, the TGI in the assay on NCI/ADR-RES ovarian was over 100 µM; in the assay on HCT-15 colon, over 100 µM; in the assay on HS 578T breast, 87 µM; with SNB-75 CNS, over 100 µM; in the assay on MDA-MB-231 breast, over 100 µM; in the assay with UACC-62 melanoma, over 100 µM. In addition, the TGI in the assay with NCI-H522 lung, with 786-0 renal and in the assay on SF-295 CNS was over 100 µM each time.
Take `CCCCCCCCCCCOc1ccc(C(=O)C(=O)c2ccc(OCCCCCCCCCCC)c(OCCCCCCCCCCC)c2)cc1OCCCCCCCCCCC`: the TGI was over 100 µM in the assay with NCI-H226 lung; over 100 µM with HCT-15 colon; 95.7 µM in the assay on SNB-75 CNS; over 100 µM in the assay with UACC-62 melanoma; over 100 µM in the assay on NCI-H522 lung; over 100 µM in the assay with 786-0 renal. In the assay on SF-295 CNS, this compound yielded a TGI of over 100 µM.
Turning to `CC1C=C(CCCCCCCCCCCC[C@@H](O)[C@@H]2CC[C@@H]([C@@H]3CC[C@@H](C(O)CCCCCCCCCCCCC4=C[C@H](C)OC4=O)O3)O2)C(=O)O1` (stereo not given in full), the TGI with NCI-H226 lung is over 100 µM; with HCT-15 colon, over 100 µM; with SNB-75 CNS it was over 100 µM; with UACC-62 melanoma, over 100 µM; with NCI-H522 lung, 39.6 µM; with 786-0 renal, over 100 µM. The TGI in the assay with SF-295 CNS was over 100 µM.
For `Brc1ccc(N=c2nc3ccccn3n3nc(-c4ccccc4)cc23)cc1`, the TGI is over 100 µM with NCI-H226 lung; over 100 µM with HCT-15 colon; over 100 µM in the assay on SNB-75 CNS; 63.3 µM in the assay on UACC-62 melanoma; 88.2 µM in the assay with NCI-H522 lung; 65.2 µM in the assay with 786-0 renal. Also, the TGI in the assay on SF-295 CNS was over 100 µM.
As for `CCC[C@@H](O)C[C@@H]1CCC[C@H](C[C@@H](O)CC)N1C`, the TGI with NCI/ADR-RES ovarian, in the assay on NCI-H226 lung, with MDA-MB-435, with HCT-15 colon, with MDA-MB-231 breast and in the assay on UACC-62 melanoma was over 100 µM throughout. In addition, the TGI in the assay on NCI-H522 lung was 30.7 µM; in the assay with 786-0 renal, over 100 µM; in the assay on SF-295 CNS, over 100 µM.
